Numbers after ± are expanded uncertainties.
conditions: Crystal; Heating/Cooling curves

| Triple point temperature [K] | SMILES |
| --- | --- |
| 118.02 ± 1 | FC(F)F [trifluoromethane] |
| 181.99 ± 1 | [N-]=[N+]=O [nitrous oxide] |
| 216.52 ± 1 | O=C=O [carbon dioxide] |
